Results taken from US20250082598A1, “Melafenoxate, 2-(1-adamantylamino)ethyl 2-(4-chlorophenoxy)acetate and derivatives thereof for treating circadian rhythm sleep disorders with neurodegenerative diseases such as Alzheimer's disease” (NLS Pharmaceutics AG, priority 2021, published 2025).

What was measured:
[1] = target: T1, 5-HT7 (h) (Homo sapiens, UniProt P34969); assay: Radioligand binding, 5-HT7 (h); details: 10^−5 M; agonist radioligand
T1 construct: CEREP (Eurofins, France)
Experimental: (§1) Melafenoxate was tested at 10^−5 M, calculated as a % inhibition of control specific binding of a radioactively labeled ligand specific for each target.
(§2) This binding profile panel was broadly defined with roughly an equal number of selective, central and peripheral therapeutically relevant targets, including native animal tissues, radioligands and specific enzymes involved in cell cycle regulation in accordance with Eurofins Standard Operating Procedure.
(§3) For radioligand binding experiments, the half maximal inhibitory concentration (IC50) and the half maximal effective concentration (EC50) values were determined (via computer software) by nonlinear regression analysis of the competition curves using Hill equation curve fitting. The inhibition constants (Ki) were calculated using the Cheng-Prusoff equation (Ki=IC50/(1+(L/KD)), where L is the concentration of radioligand in the assay, and KD is the affinity of the radioligand for the receptor.^49
(§4) The results are expressed as a % control specific binding ([measured specific binding/control specific binding]×100) and as a % inhibition of control specific binding (100−[(measured specific binding/control specific binding)×100]) obtained in the presence of the test compounds. […]

[2] = target: T2, NK2 (h) (Homo sapiens, UniProt P21452); assay: Radioligand binding, NK2 (h); details: 10^−5 M; agonist radioligand
T2 construct: CEREP (Eurofins, France)
T2 sequence (P21452 1-398): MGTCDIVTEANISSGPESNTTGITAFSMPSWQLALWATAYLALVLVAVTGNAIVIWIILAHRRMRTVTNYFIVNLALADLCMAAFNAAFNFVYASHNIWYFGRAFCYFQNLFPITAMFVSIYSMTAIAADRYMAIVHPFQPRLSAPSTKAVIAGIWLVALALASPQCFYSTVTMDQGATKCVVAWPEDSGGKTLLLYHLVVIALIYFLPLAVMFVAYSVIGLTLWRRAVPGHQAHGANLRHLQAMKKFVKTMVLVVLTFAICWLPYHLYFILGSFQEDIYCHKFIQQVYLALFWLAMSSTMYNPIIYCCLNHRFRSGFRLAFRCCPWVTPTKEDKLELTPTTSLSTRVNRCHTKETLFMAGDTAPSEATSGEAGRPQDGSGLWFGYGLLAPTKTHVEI
Experimental: as §1, §2, §3, §4

T1 sequence (P34969 whole entry): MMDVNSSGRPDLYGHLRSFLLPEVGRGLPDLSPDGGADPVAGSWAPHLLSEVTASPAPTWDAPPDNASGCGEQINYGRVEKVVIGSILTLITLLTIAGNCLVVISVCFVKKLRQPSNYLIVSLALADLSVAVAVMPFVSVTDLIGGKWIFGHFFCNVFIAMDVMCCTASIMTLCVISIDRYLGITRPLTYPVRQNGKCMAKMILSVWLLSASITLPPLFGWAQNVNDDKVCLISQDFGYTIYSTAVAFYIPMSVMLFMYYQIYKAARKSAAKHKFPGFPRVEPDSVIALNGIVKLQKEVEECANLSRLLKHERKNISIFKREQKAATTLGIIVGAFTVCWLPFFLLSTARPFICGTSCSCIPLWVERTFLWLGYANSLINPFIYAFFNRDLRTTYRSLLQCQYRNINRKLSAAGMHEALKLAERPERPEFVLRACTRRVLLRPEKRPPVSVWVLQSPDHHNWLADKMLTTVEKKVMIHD

inhibition at 10 µM [1]: 12.8% | inhibition at 10 µM [2]: 33.5%
Compound: O=C(COc1ccc(Cl)cc1)OCCNC12CC3CC(CC(C3)C1)C2 [Melafenoxate, 2-(1-adamantylamino)ethyl 2-(4-chlorophenoxy)acetate]
